Data published in ChEMBL document CHEMBL2440048 (J Med Chem, 2013).

Experiment: Inhibition of RyR2 R4496C mutant (unknown origin)-mediated store-overload induced calcium release expressed in HEK293 cells after 8 to 10 mins by fura-2/AM dye-based fluorescence assay
Type: cell-based
Settings: Homo sapiens

Row | IC50 [mM] | Structure (SMILES)
1 | > 1 | COc1ccccc1OCCNCC(O)COc1ccc2[nH]cnc2c1 (configuration not stated)
2 | > 1 | COc1ccc2c(c1)N(C)CCCS2
